Source: patent US10800815B2, “Kv1.3 potassium channel antagonists” (cgtx-Peptide Development GmbH, priority 2014, dated 2020)
Where two headings read alike, the source gives them in different places.

Tests used:
Kv1.1 = biological target: T1, Kv1.1 (Homo sapiens, UniProt Q09470); test: Patch-clamp measurement of Kv1.1 channel inhibition (Example 1); format: cell-based; design: dose or concentration left out as unconfirmed
T1 construct: expressed in transfected cells; host or cells: Sf21 insect cells, baculovirus infection
T1 sequence (Q09470 whole entry): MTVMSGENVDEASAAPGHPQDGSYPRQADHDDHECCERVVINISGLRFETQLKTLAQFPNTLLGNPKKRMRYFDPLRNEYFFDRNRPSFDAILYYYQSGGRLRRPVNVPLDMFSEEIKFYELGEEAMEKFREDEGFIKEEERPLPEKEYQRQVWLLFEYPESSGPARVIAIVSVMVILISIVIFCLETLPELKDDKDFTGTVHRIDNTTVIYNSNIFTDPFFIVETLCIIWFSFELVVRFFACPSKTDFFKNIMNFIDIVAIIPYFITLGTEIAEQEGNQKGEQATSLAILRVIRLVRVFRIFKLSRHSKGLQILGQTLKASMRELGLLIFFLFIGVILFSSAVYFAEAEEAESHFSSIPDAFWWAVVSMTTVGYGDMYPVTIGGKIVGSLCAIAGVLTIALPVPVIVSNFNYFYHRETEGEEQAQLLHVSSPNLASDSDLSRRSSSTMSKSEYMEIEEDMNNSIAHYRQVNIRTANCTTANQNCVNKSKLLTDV
Method: FIGS. 1A-1F Measurement of Kv1.3 (FIGS. 1B and 1E), Kv1.5 (FIGS. 1C and 1F) and Kv1.1 (FIGS. 1A and 1D) channel inhibition by patch-clamp.
(§1) Peptides were dissolved at 1 μg/μl in 20 mM NaPO4 buffer pH 8.2 (1 mg in 1 ml folding buffer) and dialysed against the same buffer 3×1 L, Float-a-Lyzer cut off 500 Da (Spectrapor) at room temperature.
HsTx 1 binding was tested at various concentrations of e.g. 100 pM, 1 nM, 10 nM, 50 nM, 100 nM, 500 nM, and 1 μM—depending on the tested channel. Representative measurements for Kv 1.1, Kv1.3 and Kv1.5 are depicted in FIGS. 1 a), 1 b), and 1 c) respectively.
Cgtx-544 binding was tested at various concentrations of e.g. 1 nM, 10 nM, 50 nM, 100 nM, 1 μM, and 5 μM—depending on the tested channel. Representative measurements for Kv1.1, Kv1.3 and Kv1.5 are depicted in FIGS. 1 d), 1e), and 1) f, respectively.

in vivo = format: in vivo; details: rat, i.v., 750 μg/kg BW; listed as cgtx-544
Method: FIG. 34 Decrease of cgtx-544(Sing) in the serum of treated rats after i.v. injection. The concentration of unbound circulating cgtx-544(Sing) was calculated on the basis of a standard curve. Standard error of the mean is depicted in the error bars (n=6).
Rats received i.v. injections of cgtx-544(Sing) (750 μg/kg BW). Blood was withdrawn at time points 0, 1, 10 and 60 minutes. Subsequently, serum was prepared from blood samples. The cgtx-544 content in these samples was analyzed electrophysiologically by measuring the blocking effect on Kv1.3 channels expressed in CHO cells. […] In order to study the amount of unbound cgtx-544(Sing) in the rat, the amount of cgtx-544(Sing) present in the circulating blood at the time points referred above was calculated through a calibration curve. This calibration curve was obtained by adding known quantities of cgtx-544(Sing) to blood serum and subsequent electrophysiological measurements on Kv1.3 channels. The block of Kv1.3 currents by these spiked samples was similar to that obtained with cgtx-544(Sing) in the absence of serum (data not shown).

[1] = biological target: T2, Kv1.3 channels expressed in Sf21 insect cells (Homo sapiens, UniProt P22001); test: Stability ex vivo in rat blood plasma, read out as IC50 on Kv1.3 (Example 3); format: in vitro ADME
T2 construct: expressed in transfected cells; host or cells: Sf21 insect cells, baculovirus infection
T2 sequence (P22001 whole entry): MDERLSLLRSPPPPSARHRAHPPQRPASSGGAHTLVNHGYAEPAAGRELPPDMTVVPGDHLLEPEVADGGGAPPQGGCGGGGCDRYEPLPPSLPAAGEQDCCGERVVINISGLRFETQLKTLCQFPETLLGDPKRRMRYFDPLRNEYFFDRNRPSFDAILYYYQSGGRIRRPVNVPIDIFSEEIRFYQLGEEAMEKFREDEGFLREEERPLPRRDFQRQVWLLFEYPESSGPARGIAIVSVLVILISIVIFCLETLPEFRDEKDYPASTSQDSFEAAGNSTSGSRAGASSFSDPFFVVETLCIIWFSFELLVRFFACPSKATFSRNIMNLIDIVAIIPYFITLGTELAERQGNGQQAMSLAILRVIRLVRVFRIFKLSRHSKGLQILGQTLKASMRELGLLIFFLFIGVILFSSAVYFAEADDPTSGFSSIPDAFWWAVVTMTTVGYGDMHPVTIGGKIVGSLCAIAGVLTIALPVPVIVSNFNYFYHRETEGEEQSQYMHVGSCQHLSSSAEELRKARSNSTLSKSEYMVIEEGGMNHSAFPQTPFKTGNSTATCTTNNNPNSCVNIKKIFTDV
Method: The aim was to test the stability of the cgtx-544 peptide in blood plasma of mammals after different incubation times at room temperature (RT) and 37° C. Stability was defined as IC50 value of cgtx-544 after different incubation times at RT and 37° C. Blood plasma was prepared from fresh blood samples from healthy rats or humans. Heparin was added to fresh blood samples to prevent clogging. Plasma preparation was performed by centrifugation for 2 min at 2000×g at RT.
As the cgtx-544 peptide used in these experiments was incompletely folded, a higher IC50 than normal was determined.
To investigate the stability and activity in plasma the peptide was added to freshly prepared human and rat blood plasma at a final concentration of 2 μM. The samples were split into two aliquots and incubated at 37° C. and at room temperature (RT, 20° C.). For the electrophysiological analysis serial dilutions of the samples were prepared.

[2] = biological target: T3, human Kv1.3 (hKv1.3) channel (Homo sapiens, UniProt P22001); test: Planar patch clamp (Port-A-Patch) of Kv1.3 potassium currents in Sf 21 cells (Example 1); format: cell-based
T3 construct: expressed in transfected cells; host or cells: Sf21 (Spodoptera frugiperda) insect cells, baculovirus infection
T3 sequence (P22001 whole entry): as above
Method: Potassium currents were measured by use of Spodoptera frugiperda (Sf 21) cells, which express the human Kv1.3 (hKv1.3) channel. The channel activity is induced upon membrane depolarization to voltages more positive than −40 mV. […] In Sf 21 cells hKv1.3 has an average current amplitude between 250 pA-5 nA at +40 mV.
1-3 days after infection potassium currents were recorded with the planar patch clamp technique, using the Port-A-Patch (Nanion Technologies GmbH). Ionic currents were activated by voltage steps to a depolarizing potential of +40 mV for 200 ms.
Sf 21 cells were cultured in Grace's insect cell medium supplemented with 10% FBS (Fetal Bovine Serum), 2 mM Glutamine, 1×Yeastolate (from 50× stock solution) and 0.1% Pluronic® F68 (BASF) to a cell density of 2-3×10^6 cells/ml.
External buffer: 160 mM NaCl • 4.5 mM KCl • 1 mM MgCl2 • 2 mM CaCl2 • 5 mM D-Glucose monohydrate • 10 mM HEPES/NaoH pH7.4
Internal buffer: 75 mM KCl • 10 mM NaCl • 70 mM K-Fluoride • 2 mM MgCl2 • 10 mM EGTA • 10 mM HEPES/KOH pH 7.2
as §1
HsTx 1 binding was tested at various concentrations of e.g. 100 pM, 1 nM, 10 nM, 50 nM, 100 nM, 500 nM, and 1 μM—depending on the tested channel. […]

Kv1.3 = Kv1.3 (Homo sapiens, UniProt P22001); test: Kv1.3 block with prolonged incubation times; format: cell-based
Chain of Kv1.3 (P22001 whole entry): as above

[3] = Biochemical properties: isoelectric point; format: physicochemical

Q: Which “block of Kv1.1” value (Kv1.1) does the source give for `CC[C@H](C)[C@H](NC(=O)[C@@H](N)[C@@H](C)O)C(=O)N[C@H](C(=O)N[C@@H](CC(N)=O)C(=O)N[C@H](C(=O)N[C@@H](CCCCN)C(=O)N[C@H]1CSSC[C@@H]2NC(=O)[C@H](CCCCN)NC(=O)CNC(=O)[C@H](Cc3ccc(O)cc3)NC(=O)[C@@H]3CCCN3C(=O)[C@@H]3CSSC[C@@H](C(=O)O)NC(=O)[C@H](CCCNC(=N)N)NC(=O)[C@H](CC(N)=O)NC(=O)[C@@H]4CSSC[C@H](NC(=O)[C@@H]5CCCN5C(=O)[C@@H]5CCCN5C(=O)[C@H](CC(C)C)NC(=O)[C@H](CSSC[C@H](NC(=O)[C@H](CCCCN)NC(=O)[C@H](CCCNC(=N)N)NC(=O)[C@H](CC(N)=O)NC(=O)[C@H](CCSC)NC2=O)C(=O)N[C@@H](CCCCN)C(=O)N4)NC(=O)[C@H](CCC(N)=O)NC(=O)[C@H](CCCCN)NC(=O)[C@@H]2CCCN2C(=O)[C@H](CO)NC(=O)[C@H]([C@@H](C)O)NC1=O)C(=O)N[C@@H](CCCCN)C(=O)N[C@@H](C)C(=O)N[C@@H](CCC(N)=O)C(=O)N[C@@H]([C@@H](C)O)C(=O)NCC(=O)N3)C(C)C)[C@@H](C)CC` [Compound 7] here?
A: Its value is “about 22%”.

Q: And the in vivo half-life (in vivo)?
A: The in vivo half-life was “approximately 26 min”.

Q: What about the “significant change in activity” value ([1]; 24 h, 37° C. and RT) of the same molecule?
A: The value was “could not be detected”.

Q: And the “activity after incubation in plasma” value ([1]; 48 h at RT)?
A: Its value is “remained unchanged”.

Q: What about the “activity after incubation in plasma” value ([1]; 14 days at 37° C.) of the same molecule?
A: The value was “no activity was detected”.

Q: What about the “activity after incubation in plasma” value ([1]; 14 days at RT) of the same molecule?
A: The value was “unchanged activity”.

Q: What about the IC50 ([1]; read-out: IC50 on Kv1.3 after incubation in plasma, 48 h at 37° C.) of the same molecule?
A: Its IC50 is 57.8 nM.

Q: And the IC50 ([1]; read-out: IC50 on Kv1.3 in plasma, time point 0 h)?
A: Its IC50 is 15 nM.

Q: What about the “selectivity for Kv1.3 vs. Kv1.1 compared to HsTx 1” value [2] of the same molecule?
A: The value was “higher selectivity”.

Q: And the IC50 ([2]; read-out: IC50 on Kv1.3 before the start of the plasma stability experiment, incompletely folded peptide, n=5 cells, Sf21)?
A: The IC50 was 46.1 nM.

Q: And the “block of Kv1.3 currents” value (Kv1.3; long incubation times, i.e. 15 min)?
A: Its value is 60%.

Q: And the “block of Kv1.3 currents” value (Kv1.3; short incubation times)?
A: The value was 20%.

Q: And the Isoelectric point [3]?
A: The Isoelectric point was 9.29.
